Measured values from the NIST ThermoML archive (doi:10.1021/je700260f).

Settings: 303.15 K, Liquid, Vibrating tube method

FC(C(F)(F)F)C(F)(F)F [1,1,1,2,3,3,3-heptafluoropropane]
Settings | mass density [kg/m3]
8067 kPa | 1421.1
8093 kPa | 1421.3
8123 kPa | 1421.4
8152 kPa | 1421.5
8181 kPa | 1421.9
8211 kPa | 1422
8250 kPa | 1422.2
8280 kPa | 1422.3
8306 kPa | 1422.5
8340 kPa | 1422.8
8378 kPa | 1423
8411 kPa | 1423.1
8436 kPa | 1423.4
8471 kPa | 1423.6
8496 kPa | 1423.6
8526 kPa | 1423.9
8556 kPa | 1423.9
8581 kPa | 1424.3
8610 kPa | 1424.4
8640 kPa | 1424.4
8671 kPa | 1424.6
8697 kPa | 1424.8
8726 kPa | 1425
8752 kPa | 1425.2
8778 kPa | 1425.4
8808 kPa | 1425.5
8847 kPa | 1425.8
8873 kPa | 1425.9
8908 kPa | 1426.2
8947 kPa | 1426.2
8978 kPa | 1426.5
9004 kPa | 1426.6
9031 kPa | 1426.8
9066 kPa | 1426.9
9263 kPa | 1428.1
9299 kPa | 1428.3
9334 kPa | 1428.5
9370 kPa | 1428.6
9401 kPa | 1428.9
9445 kPa | 1429.1
9480 kPa | 1429.3
9502 kPa | 1429.4
9533 kPa | 1429.7
9567 kPa | 1429.9
9598 kPa | 1429.9
9634 kPa | 1430.2
9661 kPa | 1430.3
9693 kPa | 1430.5
9720 kPa | 1430.6
9747 kPa | 1430.8
9779 kPa | 1431.1
9806 kPa | 1431.2
9833 kPa | 1431.3
9878 kPa | 1431.5
9906 kPa | 1431.7
9938 kPa | 1431.8
9969 kPa | 1432.1
9996 kPa | 1432.3
10037 kPa | 1432.6
10069 kPa | 1432.6
10110 kPa | 1432.8
10137 kPa | 1433
10174 kPa | 1433.2
10201 kPa | 1433.4
10228 kPa | 1433.5
10255 kPa | 1433.7
10278 kPa | 1433.7
10311 kPa | 1434
10343 kPa | 1434
10379 kPa | 1434.3
10406 kPa | 1434.4
10434 kPa | 1434.6
10466 kPa | 1434.8
10494 kPa | 1434.9
10531 kPa | 1435.1
10559 kPa | 1435.3
10596 kPa | 1435.4
10629 kPa | 1435.8
10662 kPa | 1436
10695 kPa | 1436
10725 kPa | 1436.2
10753 kPa | 1436.4
10791 kPa | 1436.6
10824 kPa | 1436.9
10960 kPa | 1437.4
11032 kPa | 1437.7
11066 kPa | 1438
11105 kPa | 1438.2
11143 kPa | 1438.4
11183 kPa | 1438.6
11218 kPa | 1438.8
11258 kPa | 1439.1
11297 kPa | 1439.2
11332 kPa | 1439.3
11372 kPa | 1439.7
11402 kPa | 1439.8
11442 kPa | 1439.8
11473 kPa | 1440.1
11525 kPa | 1440.4
11555 kPa | 1440.6
11599 kPa | 1440.8
11633 kPa | 1441
11668 kPa | 1441.2
11703 kPa | 1441.2
11734 kPa | 1441.6
11770 kPa | 1441.7
11800 kPa | 1442
11840 kPa | 1442.2
11875 kPa | 1442.2
11915 kPa | 1442.5
11952 kPa | 1442.7
11987 kPa | 1442.8
12022 kPa | 1443
12052 kPa | 1443.3
12404 kPa | 1444.9
12445 kPa | 1445.1
12481 kPa | 1445.4
12527 kPa | 1445.6
12558 kPa | 1445.7
12595 kPa | 1446
12631 kPa | 1446.1
12681 kPa | 1446.4
12722 kPa | 1446.5
12752 kPa | 1446.7
12793 kPa | 1447
12830 kPa | 1447.2
12877 kPa | 1447.5
12924 kPa | 1447.5
12965 kPa | 1447.8
12995 kPa | 1447.8
13030 kPa | 1448.2
13077 kPa | 1448.3
13108 kPa | 1448.5
13150 kPa | 1448.8
13186 kPa | 1448.9
13229 kPa | 1449.2
13275 kPa | 1449.4
13317 kPa | 1449.6
13364 kPa | 1449.7
13400 kPa | 1449.9
13432 kPa | 1450.1
13468 kPa | 1450.3
13516 kPa | 1450.6
13547 kPa | 1450.6
13593 kPa | 1450.8
13620 kPa | 1451.1
13652 kPa | 1451.1
13689 kPa | 1451.3
13730 kPa | 1451.6
13762 kPa | 1451.7
13794 kPa | 1451.9
13826 kPa | 1452
13867 kPa | 1452.1
13900 kPa | 1452.4
13937 kPa | 1452.6
13966 kPa | 1452.7
14003 kPa | 1452.9
14032 kPa | 1453.1
14069 kPa | 1453.3
14113 kPa | 1453.4
14146 kPa | 1453.5
14189 kPa | 1453.8
14223 kPa | 1454.1
14261 kPa | 1454.1
14289 kPa | 1454.2
14322 kPa | 1454.4
14355 kPa | 1454.7
14388 kPa | 1454.9
14416 kPa | 1455
14450 kPa | 1455
14493 kPa | 1455
14521 kPa | 1455.4
14555 kPa | 1455.5
14875 kPa | 1457.1
14909 kPa | 1457.2
14938 kPa | 1457.4
14981 kPa | 1457.7
15024 kPa | 1457.9
15062 kPa | 1457.8
15091 kPa | 1458
15121 kPa | 1458.3
15159 kPa | 1458.3
15193 kPa | 1458.5
15222 kPa | 1458.7
15252 kPa | 1458.8
15283 kPa | 1459
15317 kPa | 1459.2
15351 kPa | 1459.2
15389 kPa | 1459.5
15422 kPa | 1459.6
15461 kPa | 1459.8
15500 kPa | 1459.9
15540 kPa | 1460.2
15578 kPa | 1460.3
15623 kPa | 1460.4
15662 kPa | 1460.6
15692 kPa | 1460.8
15721 kPa | 1461.1
15751 kPa | 1461.1
15780 kPa | 1461.1
15805 kPa | 1461.3
15840 kPa | 1461.4
15879 kPa | 1461.7
15914 kPa | 1461.8
15948 kPa | 1462
